The target of one data set is T1, α9 nAChR (Homo sapiens, UniProt Q9UGM1).
T1 construct: inferred from capture on NTA sensor
Kind of data set: BLI (biolayer interferometry) affinity of peptides to α9 nAChR. Type of data set: binding. As to conditions: NTA sensor, α9 nAChR 5 µg/mL, peptide 1.372-1000 nM in PBS. From the text: (§1) BLI is a label-free technology that converts optical interference signals occurring on the surface of BLI biosensors into real-time response signals. By monitoring the molecular binding process in real time, the system determines association rate constants (ka or kon), dissociation rate constants (kd or koff), and initial binding rates, and calculates affinity (KD) by fitting analysis. Here are the specific procedures: NTA sensors (Sartorius) were placed in a pre-wetting tray, which was then positioned in a black 96-well plate with 200 µL PBS per well. The NTA sensors were pre-wetted for at least 15 minutes. The target protein α9 nAChR was diluted in PBS to 5 µg/mL, with 200 µL added per well. Test peptides were dissolved in PBS and serially diluted threefold, with concentrations from high to low as 1000 nM, 333.3 nM, 111.1 nM, 37.04 nM, 12.35 nM, 4.115 nM, and 1.372 nM, with an additional well with PBS only as a zeroconcentration control. After equilibrating the instrument baseline, the NTA sensor was used to immobilize the target protein α9 nAChR. Once immobilization was complete, the baseline was re-equilibrated, followed by a 5-minute association and a 5-minute dissociation phase. Affinity measurements of the test peptides were conducted sequentially using the above procedure. The procedure for measuring peptide affinity to α7 nAChR was similar, except that the α7 nAChR concentration was 20 µg/mL. Tables 2 and 3 show the BLI-determined affinities of alanine-scan peptide analogs with target proteins, which identified sites on the parent peptide suitable for modification. Subsequently, single-site non-natural amino acid substituted peptides were evaluated by BLI for target protein affinity. Finally, multi-site combinatorial modified peptides were measured for affinity by BLI, leading to the selection of high-affinity peptides for further screen and drug development potential. Table 2 Test Results for Affinity of Modified Peptides to α9 nAChR
(Biolayer interferometry detects binding as a change in optical thickness at a sensor tip.)

Data set [1] can be described thus: Plasma stability of AJ003-40 and AJ003-24 (HPLC, Example 4). Type of data set: in vitro ADME. Particulars: human plasma; for main peak area: 2 mg/mL. The procedure:
Peptides AJ003-40 and AJ003-24 were separately weighed and mixed with human plasma to prepare solutions at 2 mg/mL. 300 µL of peptide-containing plasma was mixed with 300 µL acetonitrile, centrifuged at 4°C and 12,000 rpm for 5 minutes, and the supernatant was filtered through an organic membrane. 200 µL of the filtrate was transferred to an LC vial as the 0 h sample. Peptide-containing plasma was incubated in a 37°C water bath. For AJ003-40, 300 µL of plasma was sampled at 24 h, mixed with 300 µL acetonitrile, centrifuged, filtered, and 200 µL of the filtrate was transferred to an LC vial as the 24 h sample. For AJ003-24, 300 µL of plasma was sampled at 22 h, processed similarly, and 200 µL of the filtrate was transferred to an LC vial as the 22 h sample.

Data set [2] deals with mouse oxaliplatin acute chemotherapy pain model. Kind of data set: Mouse oxaliplatin chemotherapy pain model, multiple peptides (Example 8). It is filed as in vivo. As to conditions: single dose 3 mg/kg s.c., 0.5-8 h post-dose, n=3. The procedure: Oxaliplatin was dissolved in 5% glucose solution to a concentration of 1 mg/mL. For model induction, each male C57 mouse (Shanghai Bikai Keyi Biotechnology Co., Ltd.) received a single intraperitoneal injection of oxaliplatin at 10 mg/kg. Mice in the negative control or blank control group received 5% glucose solution. Approximately one week after model induction, mechanical pain thresholds of the mice were measured three times per mouse, and the average value was calculated. Mice were then randomly assigned to groups based on their pain thresholds. Drug administration was carried out according to the dosing schedule shown in Table 7, with a single dose per mouse. Mechanical pain thresholds were measured at 0.5, 1, 2, 4, 6, and 8 h post-dose. […] Table 7 Dosing Scheme for Oxaliplatin Chemotherapy Pain Model in Mice

In another data set the target is α7 nAChR (Homo sapiens, UniProt P36544). Kind of data set: BLI (biolayer interferometry) affinity of peptides to α7 nAChR. It is filed as binding. Particulars: NTA sensor, α7 nAChR 20 µg/mL, peptide 1.372-1000 nM in PBS. Also on record: inferred from the 'similar' procedure on NTA sensors.
α7 nAChR, sequence (P36544 23-502): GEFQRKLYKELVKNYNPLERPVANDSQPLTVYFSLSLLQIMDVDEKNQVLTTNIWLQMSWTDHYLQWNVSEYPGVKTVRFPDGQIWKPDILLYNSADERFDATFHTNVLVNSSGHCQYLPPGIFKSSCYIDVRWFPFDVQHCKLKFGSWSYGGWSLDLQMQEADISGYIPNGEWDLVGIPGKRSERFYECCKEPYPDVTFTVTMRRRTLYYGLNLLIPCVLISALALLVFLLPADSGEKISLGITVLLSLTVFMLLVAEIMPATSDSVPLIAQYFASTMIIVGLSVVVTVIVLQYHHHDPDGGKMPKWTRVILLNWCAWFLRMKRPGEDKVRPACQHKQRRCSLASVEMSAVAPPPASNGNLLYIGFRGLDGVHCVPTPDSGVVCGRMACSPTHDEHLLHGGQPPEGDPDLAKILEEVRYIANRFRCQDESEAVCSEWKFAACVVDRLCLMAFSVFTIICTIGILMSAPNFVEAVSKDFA
From the text: as §1

Another data set addresses α9α10 nAChRs (Homo sapiens, UniProt Q9GZZ6+Q9UGM1). As to conditions: cited from earlier work.
The target in the next data set is Cav2.2 channel (Homo sapiens, UniProt Q00975). As to conditions: cited from earlier work.
Cav2.2 channel, sequence (Q00975 whole entry, looked up): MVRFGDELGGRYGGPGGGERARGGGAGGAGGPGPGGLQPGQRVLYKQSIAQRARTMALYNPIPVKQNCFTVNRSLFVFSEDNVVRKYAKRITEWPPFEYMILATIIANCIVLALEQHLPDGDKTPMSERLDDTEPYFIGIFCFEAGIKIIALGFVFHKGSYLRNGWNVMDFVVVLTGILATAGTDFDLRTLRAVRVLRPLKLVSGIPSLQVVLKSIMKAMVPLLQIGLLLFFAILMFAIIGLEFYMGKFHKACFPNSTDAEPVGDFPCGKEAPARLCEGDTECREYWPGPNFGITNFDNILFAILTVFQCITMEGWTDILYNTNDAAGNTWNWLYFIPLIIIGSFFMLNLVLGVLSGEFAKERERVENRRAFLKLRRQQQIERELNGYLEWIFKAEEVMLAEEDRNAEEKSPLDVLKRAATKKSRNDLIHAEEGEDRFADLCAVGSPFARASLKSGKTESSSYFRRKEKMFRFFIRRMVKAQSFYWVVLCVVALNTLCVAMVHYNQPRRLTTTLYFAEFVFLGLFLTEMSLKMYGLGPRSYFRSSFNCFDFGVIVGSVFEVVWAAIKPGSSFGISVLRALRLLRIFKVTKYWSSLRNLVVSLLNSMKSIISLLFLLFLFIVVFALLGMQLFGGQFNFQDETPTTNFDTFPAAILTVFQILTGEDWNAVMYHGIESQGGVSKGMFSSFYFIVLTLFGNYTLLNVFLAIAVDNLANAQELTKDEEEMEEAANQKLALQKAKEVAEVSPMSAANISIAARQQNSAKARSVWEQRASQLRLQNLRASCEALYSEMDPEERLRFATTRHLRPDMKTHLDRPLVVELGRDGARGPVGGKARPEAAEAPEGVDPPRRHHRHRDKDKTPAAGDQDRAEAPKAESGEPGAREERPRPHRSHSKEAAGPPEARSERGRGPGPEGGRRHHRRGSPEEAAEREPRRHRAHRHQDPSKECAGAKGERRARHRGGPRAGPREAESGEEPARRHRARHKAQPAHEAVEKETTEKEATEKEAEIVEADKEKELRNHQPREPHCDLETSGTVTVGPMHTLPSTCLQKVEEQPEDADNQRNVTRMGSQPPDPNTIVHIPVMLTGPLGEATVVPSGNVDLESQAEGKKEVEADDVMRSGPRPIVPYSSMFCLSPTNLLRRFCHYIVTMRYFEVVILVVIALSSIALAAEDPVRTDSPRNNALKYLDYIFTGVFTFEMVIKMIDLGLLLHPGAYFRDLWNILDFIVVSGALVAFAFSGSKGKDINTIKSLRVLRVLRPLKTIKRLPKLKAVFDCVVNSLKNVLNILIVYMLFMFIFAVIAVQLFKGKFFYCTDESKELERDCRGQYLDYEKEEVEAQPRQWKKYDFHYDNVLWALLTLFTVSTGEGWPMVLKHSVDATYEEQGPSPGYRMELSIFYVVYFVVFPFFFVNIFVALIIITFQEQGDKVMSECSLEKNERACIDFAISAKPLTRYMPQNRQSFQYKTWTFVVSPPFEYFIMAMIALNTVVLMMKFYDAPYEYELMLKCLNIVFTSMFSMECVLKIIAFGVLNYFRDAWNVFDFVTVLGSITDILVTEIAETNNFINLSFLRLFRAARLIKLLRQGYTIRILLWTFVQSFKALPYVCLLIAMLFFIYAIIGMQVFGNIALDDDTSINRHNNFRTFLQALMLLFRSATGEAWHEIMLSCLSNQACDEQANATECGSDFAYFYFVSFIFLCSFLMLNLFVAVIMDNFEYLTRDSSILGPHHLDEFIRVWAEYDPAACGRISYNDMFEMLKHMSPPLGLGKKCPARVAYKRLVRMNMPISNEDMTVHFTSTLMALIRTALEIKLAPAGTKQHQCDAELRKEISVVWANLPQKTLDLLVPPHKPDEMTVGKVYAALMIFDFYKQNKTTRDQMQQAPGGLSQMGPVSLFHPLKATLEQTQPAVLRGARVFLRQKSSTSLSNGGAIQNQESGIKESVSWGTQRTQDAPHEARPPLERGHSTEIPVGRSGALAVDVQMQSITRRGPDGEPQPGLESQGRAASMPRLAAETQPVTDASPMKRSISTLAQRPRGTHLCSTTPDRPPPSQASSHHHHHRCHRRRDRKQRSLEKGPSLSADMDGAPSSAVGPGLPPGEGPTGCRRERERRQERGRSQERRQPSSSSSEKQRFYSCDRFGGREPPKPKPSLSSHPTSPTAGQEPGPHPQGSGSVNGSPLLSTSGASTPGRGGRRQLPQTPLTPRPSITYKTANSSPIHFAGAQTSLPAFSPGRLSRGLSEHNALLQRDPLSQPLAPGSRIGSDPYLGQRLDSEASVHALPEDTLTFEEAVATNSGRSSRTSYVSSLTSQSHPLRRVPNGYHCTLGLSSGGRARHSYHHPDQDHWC

This is an account of results in patent publication EP4725956A1, “MODIFIED POLYPEPTIDE AND USE THEREOF IN FIELD OF ANALGESIA” (Nanjing Anji Biotechnology Co., Ltd., priority 2023, dated 2024).

Positions of bridges follow the written chain, without caps; N, C: chain ends. Non-standard residues stand in square brackets, D forms with d. Residues, ends and D or L forms follow the SMILES beside them. Hyp = O=C(O)[C@@H]1C[C@@H](O)CN1; Aib = CC(C)(N)C(=O)O

T1 sequence (Q9UGM1 23-479): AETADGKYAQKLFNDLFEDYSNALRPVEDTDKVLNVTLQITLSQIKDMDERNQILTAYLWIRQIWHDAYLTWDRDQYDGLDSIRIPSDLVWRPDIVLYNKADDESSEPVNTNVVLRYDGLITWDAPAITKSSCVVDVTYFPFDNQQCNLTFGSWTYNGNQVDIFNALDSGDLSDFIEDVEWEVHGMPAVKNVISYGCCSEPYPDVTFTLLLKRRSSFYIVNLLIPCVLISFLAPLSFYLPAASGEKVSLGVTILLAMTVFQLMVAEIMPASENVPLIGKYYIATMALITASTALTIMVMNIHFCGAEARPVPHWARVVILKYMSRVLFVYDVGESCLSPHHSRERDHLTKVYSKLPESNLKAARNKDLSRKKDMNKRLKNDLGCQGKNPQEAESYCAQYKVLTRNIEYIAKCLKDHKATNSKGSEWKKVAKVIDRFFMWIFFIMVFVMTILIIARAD
α9α10 nAChRs, sequence (Q9UGM1 26-479 limits assumed): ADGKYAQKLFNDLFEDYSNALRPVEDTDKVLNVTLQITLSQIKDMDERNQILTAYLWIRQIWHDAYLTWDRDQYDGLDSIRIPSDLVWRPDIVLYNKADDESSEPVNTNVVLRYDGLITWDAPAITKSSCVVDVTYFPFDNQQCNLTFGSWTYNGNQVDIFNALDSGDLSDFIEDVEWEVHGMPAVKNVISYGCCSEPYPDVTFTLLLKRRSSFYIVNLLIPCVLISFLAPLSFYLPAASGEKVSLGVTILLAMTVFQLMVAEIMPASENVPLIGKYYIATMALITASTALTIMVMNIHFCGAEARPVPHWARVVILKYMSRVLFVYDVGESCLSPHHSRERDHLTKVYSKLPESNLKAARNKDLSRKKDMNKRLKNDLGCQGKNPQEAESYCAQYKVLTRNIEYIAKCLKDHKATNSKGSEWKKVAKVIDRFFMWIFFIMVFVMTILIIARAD
α9α10 nAChRs, sequence (Q9GZZ6 25-450): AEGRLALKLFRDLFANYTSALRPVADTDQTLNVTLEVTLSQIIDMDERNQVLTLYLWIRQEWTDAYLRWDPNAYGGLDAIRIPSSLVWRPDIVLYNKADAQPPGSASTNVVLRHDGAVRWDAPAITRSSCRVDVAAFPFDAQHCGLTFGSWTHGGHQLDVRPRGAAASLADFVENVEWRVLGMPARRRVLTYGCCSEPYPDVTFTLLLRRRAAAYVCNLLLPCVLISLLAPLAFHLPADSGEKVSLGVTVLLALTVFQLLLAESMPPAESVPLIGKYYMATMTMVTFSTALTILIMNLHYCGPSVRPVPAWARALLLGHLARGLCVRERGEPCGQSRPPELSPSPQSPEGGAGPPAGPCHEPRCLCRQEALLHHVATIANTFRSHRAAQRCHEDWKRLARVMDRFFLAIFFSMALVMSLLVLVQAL

The Kd is the equilibrium constant for the complex coming apart. As for `CC(C)C[C@H](NC(=O)[C@@H](NC(=O)[C@H]1CSSC[C@H](NC(=O)[C@H](CO)NC(=O)CN)C(=O)N[C@@H](CO)C(=O)N[C@H]([C@H](C)O)C(=O)N2C[C@H](O)C[C@H]2C(=O)N2CCC[C@H]2C(=O)N[C@@H](CO)C(=O)N1)C(C)C)C(=O)N[C@@H](Cc1ccc(O)cc1)C(=O)N[C@@H](CO)C(=O)O` [AJ003-16, GSCS-(D-Thr)-Hyp-PS-(D-Cys)-VLYS (3,9 disulfide bond)] (H-GSCS[dT][Hyp]PS[dC]VLYS-OH; disulfide 3-9), on α9 nAChR, the affinity, expressed as Kd, was 35.3 nM.
The same measure, in the same setting: under `CC(C)C[C@H](NC(=O)[C@@H](NC(=O)[C@H]1CSSC[C@H](NC(=O)[C@H](CO)NC(=O)CN)C(=O)N[C@@H](CO)C(=O)N[C@H]([C@H](C)O)C(=O)N2CCC[C@H]2C(=O)N2C[C@H](O)C[C@H]2C(=O)N[C@@H](CO)C(=O)N1)C(C)C)C(=O)N[C@@H](Cc1ccc(O)cc1)C(=O)N[C@@H](CO)C(=O)O` [AJ003-17, GSCS-(D-Thr)-P-Hyp-S-(D-Cys)-VLYS (3,9 disulfide bond)] (H-GSCS[dT]P[Hyp]S[dC]VLYS-OH; disulfide 3-9) stands 110 nM.
Consider `CC(C)C[C@H](NC(=O)[C@@H](NC(=O)[C@H]1CSSC[C@H](NC(=O)[C@H](CO)NC(=O)CN)C(=O)N[C@@H](CO)C(=O)N[C@H]([C@H](C)O)C(=O)N2CCC[C@H]2C(=O)N2CCC[C@H]2C(=O)NCC(=O)N1)C(C)C)C(=O)N[C@@H](Cc1ccc(O)cc1)C(=O)N[C@@H](CO)C(=O)O` [AJ003-24, GSCS-(D-Thr)-PPG-(D-Cys)-VLYS (3,9 disulfide bond)] (H-GSCS[dT]PPG[dC]VLYS-OH; disulfide 3-9), for which the main peak area in data set [1] (0 h) is reported as 746.80; in data set [1] (37°C, 22 h) it was 267.45. Also, the metabolised at 22 h, 2 mg/mL in data set [1] (37°C, 22 h, read-out: degradation) was 64.2%. Moreover, the “analgesic activity against oxaliplatin-induced chemotherapy pain (mechanical pain threshold compared with the model group)” value in data set [2] is reported as “ineffective”.
For `CC(C)C[C@H](NC(=O)C(C)(C)NC(=O)[C@H]1CSSC[C@H](NC(=O)[C@H](CO)NC(=O)CN)C(=O)N[C@@H](CO)C(=O)N[C@H]([C@H](C)O)C(=O)N2CCC[C@H]2C(=O)N2CCC[C@H]2C(=O)N[C@@H](CO)C(=O)N1)C(=O)N[C@@H](Cc1ccc(O)cc1)C(=O)N[C@@H](CO)C(=O)O` [AJ003-25, GSCS-(D-Thr)-PPS-(D-Cys)-Aib-LYS (3,9 disulfide bond)] (H-GSCS[dT]PPS[dC][Aib]LYS-OH; disulfide 3-9), the “analgesic activity against oxaliplatin-induced chemotherapy pain (mechanical pain threshold compared with the model group)” value in data set [2] is recorded as “ineffective”. This molecule also registered a Kd on α7 nAChR of 4670 nM.
On to Vc1.1, for which the “reduction of activity on human receptors compared to rat receptors” value at α9α10 nAChRs is reported as “approximately 100 fold”.
With ziconotide, the “analgesic potency relative to opioids” value at Cav2.2 channel is “approximately 1000 times”.
